According to patent EP2975030B1, “DIHYDROPYRIDAZINE-3,5-DIONE DERIVATIVE” (Chugai Seiyaku Kabushiki Kaisha, priority 2013, dated 2014):

Tested on: rat small-intestinal brush border membrane vesicles
Test: Inhibitory effect on 33PO4 uptake into rat small-intestinal brush border membrane vesicles (rapid filtration method)
Format: biochemical, Wistar female rat
Conditions: 1 µM test compound, 33PO4 uptake into rat small-intestinal BBMVs, 60 seconds
Description: The ^33PO4 transport activity of the small-intestinal BBMVs was determined by the rapid filtration method. […] Then, ice-cold buffer C (110 mM NaCl, 1 mM KH2PO4, and 10 mM HEPES (pH 7.5)) was added to each reaction mixture, which was immediately suction-filtered through a Millipore filter. The filter was washed with buffer C, and each sample was then dissolved in a liquid scintillator. The amount of ^33PO4 uptake into BBMVs was measured using a liquid scintillation counter. […]

| Compound | Rate of uptake inhibition (%) (1 µM) | Rate of uptake inhibition (%) (1 µM) |
| --- | --- | --- |
| CN1N(Cc2ccc(OCCN3CCOCC3(C)C)c(F)c2F)C(=O)C(C(=O)Nc2ccc(C(F)(F)F)cc2-c2cc(C(F)(F)F)ncn2)=C(O)C12CCC2 [Example 341] | 64 | – |
| CN1N(Cc2ccc(OCCN3C4CCC3COC4)c(F)c2F)C(=O)C(C(=O)Nc2ccc(C(F)(F)F)cc2-c2cc(C(F)(F)F)ncn2)=C(O)C12CCC2 [Example 340] | 63 | – |
| CN1N(Cc2cccc(F)c2F)C(=O)C(C(=O)Nc2ccc(Cl)cc2-c2cc(C(F)(F)F)ncn2)=C(O)C12CCC2 [Example 255] | 80 | – |
| CN(CCOCCOCCOCCOCCOc1ccc(CN2C(=O)C(C(=O)Nc3ccc(C(F)(F)F)cc3-c3cc(C(F)(F)F)ncn3)=C(O)C3(CCCC3)N2C)c(F)c1F)C[C@@H](O)[C@H](O)[C@@H](O)[C@@H](O)CO [Example 421, 7-[[2,3-Difluoro-4-[2-[2-[2-[2-[2-[methyl-[(2R,3S,4S,5S)-2,3,4,5,6-pentahydroxyhexyl]amino]ethoxy]ethoxy]ethoxy]ethoxy]ethoxy]phenyl]methyl]-10-hydroxy-6-methyl-8-oxo-N-[4-(trifluoromethyl)-2-[6-(trifluoromethyl)pyrimidin-4-yl]phenyl]-6,7-diazaspiro[4.5]dec-9-ene-9-carboxamide] | 24 | – |
| CN1N(Cc2ccc(OCCCOC[C@H](O)CO)c(F)c2F)C(=O)C(C(=O)Nc2ccc(C(F)(F)F)cc2-c2cc(C(F)(F)F)ncn2)=C(O)C12CCC2 [Example 389] | 29 | – |
| CSc1ccc(-c2cc(C(F)(F)F)ccc2NC(=O)C2=C(O)C3(CCCC3)N(C)N(Cc3ccc(OCCN4CCOCC4)c(F)c3F)C2=O)cn1 [Example 289] | 55 | – |
| CSc1cc(-c2cc(C(F)(F)F)ccc2NC(=O)C2=C(O)[C@@]3(C)CCCN3N(Cc3cccc(F)c3F)C2=O)cnc1C#N [Example 113] | 84 | – |
| C[C@]12CCCN1N(Cc1c(F)cc(C#CCCCCOC[C@H](O)CO)cc1F)C(=O)C(C(=O)Nc1ccc(C(F)(F)F)cc1-c1ccc(C(F)(F)F)nc1)=C2O.[Na+] [Example 143] | 71 | – |
| CC(C)[C@H]1C(O)=C(C(=O)Nc2ccc(C(F)(F)F)cc2-c2ccc(C(F)(F)F)nc2)C(=O)N(Cc2ccc(OCCN3CCOCC3)c(F)c2F)N1C [Example 280] | 50 | – |
| C[C@]12CCCN1N(Cc1ccccc1)C(=O)C(C(=O)Nc1ccc(C(F)(F)F)cc1-c1cc(C(F)(F)F)ncn1)=C2O [Example 188] | 93 | – |
| C[C@@H]1COC[C@H](C)N1CCOc1ccc(CN2C(=O)C(C(=O)Nc3ccc(C(F)(F)F)cc3-c3cc(C(F)(F)F)ncn3)=C(O)C3(CCCC3)N2C)c(F)c1F [Example 370] | 41 | – |
| CC1(C)CC[C@]2(C)C(O)=C(C(=O)Nc3cc(C(F)(F)F)ccc3-c3ccc(C(F)(F)F)nc3)C(=O)N(Cc3cccc(F)c3F)N12 [Example 63] | 72 | – |
| C[C@]12CCCN1N(Cc1cc(F)ccc1F)C(=O)C(C(=O)Nc1cc(F)c(Br)c(F)c1)=C2O [Example 193] | 82 | – |
| CCN1[C@@H](C(C)(C)C)C(O)=C(C(=O)Nc2cc(F)c(Br)c(F)c2)C(=O)N1Cc1cccc(F)c1F [Example 246] | 52 | – |
| Cc1c(-c2cc(C(F)(F)F)ccc2NC(=O)C2=C(O)C3(CCCCC3)N(C)N(Cc3ccc(OCCN4CCOCC4)c(F)c3F)C2=O)ncnc1C(F)(F)F [Example 296] | 17 | – |
| Cc1nc(NC(=O)C2=C(O)C3(CCC3)N(C)N(Cc3cccc(F)c3F)C2=O)ccc1Br [Example 259] | 52 | – |
| Cc1cc(NC(=O)C2=C(O)[C@H]3CCCN3N(Cc3cccc(F)c3)C2=O)c(C(F)(F)F)o1 [Example 2, (4aR)-1-[(3-Fluorophenyl)methyl]-4-hydroxy-N-[5-methyl-2-(trifluoromethyl)furan-3-yl]-2-oxo-4a,5,6,7-tetrahydropyrrolo[1,2-b]pyridazine-3-carboxamide] | 19 | – |
| CCCCCN1C(=O)C(C(=O)Nc2ccc(C(F)(F)F)cc2-c2ccc(C(F)(F)F)nc2)=C(O)[C@@]2(C)CCCN12 [Example 26] | 72 | – |
| CN1N(Cc2ccc(OCCN3CCOCC3(C)C)c(F)c2F)C(=O)C(C(=O)Nc2ccc(C(F)(F)F)cc2-c2cc(C(F)(F)F)ncn2)=C(O)C12CCCC2 [Example 371] | 38 | – |

| Compound | Rate of uptake inhibition (%) (1 µM) | Rate of uptake inhibition (%) (1 µM) |
| --- | --- | --- |
| C[C@]12CCCN1N(Cc1cc(F)cc(F)c1)C(=O)C(C(=O)Nc1cc(F)c(Br)c(F)c1)=C2O [Example 190] | 84 | – |
| C[C@]12CCCN1N(Cc1cccc(F)c1F)C(=O)C(C(=O)Nc1ccc(C(F)(F)F)cc1-c1cc(C(F)(F)F)ncn1)=C2O [Example 21, (4aR)-1-[(2,3-Difluorophenyl)methyl]-4-hydroxy-4a-methyl-2-oxo-N-[4-(trifluoromethyl)-2-[6-(trifluoromethyl)pyrimidin-4-yl]phenyl]-6,7-dihydro-5H-pyrrolo[1,2-b]pyridazine-3-carboxamide] | 61 | – |
| CN(C[C@H](O)[C@@H](O)[C@H](O)[C@H](O)CO)C(=O)CCOCCOCCOc1ccc(CN2C(=O)C(C(=O)Nc3ccc(C(F)(F)F)cc3-c3cc(C(F)(F)F)ncn3)=C(O)C3(CCCC3)N2C)c(F)c1F [Example 422] | 29 | – |
| C[C@]12CCCN1N(Cc1cc(F)cc(F)c1)C(=O)C(C(=O)Nc1ccc(C(F)(F)F)cc1-c1ccc(C(F)(F)F)nc1)=C2O [Example 171] | 78 | – |
| CN(C[C@H](O)[C@@H](O)[C@H](O)[C@H](O)CO)C(=O)COCCOCCOCCOCCOc1ccc(CN2C(=O)C(C(=O)Nc3ccc(C(F)(F)F)cc3-c3cc(C(F)(F)F)ncn3)=C(O)C3(CCCC3)N2C)c(F)c1F [Example 441, 7-[[2,3-Difluoro-4-[2-[2-[2-[2-[2-[methyl-[(2S,3R,4R,5R)-2,3,4,5,6-pentahydroxyhexyl]amino]-2-oxoethoxy]ethoxy]ethoxy]ethoxy]ethoxy]phenyl]methyl]-10-hydroxy-6-methyl-8-oxo-N-[4-(trifluoromethyl)-2-[6-(trifluoromethyl)pyrimidin-4-yl]phenyl]-6,7-diazaspiro[4.5]dec-9-ene-9-carboxamide] | 22 | – |
| C[C@]12CCCN1N(Cc1cccc(F)c1F)C(=O)C(C(=O)Nc1ccc(C(F)(F)F)cc1-c1cnc(C#N)c([N+](=O)[O-])c1)=C2O [Example 99, (4aR)-N-[2-(6-Cyano-5-nitropyridin-3-yl)-4-(trifluoromethyl)phenyl]-1-[(2,3-difluorophenyl)methyl]-4-hydroxy-4a-methyl-2-oxo-6,7-dihydro-5H-pyrrolo[1,2-b]pyridazine-3-carboxamide] | 82 | – |
| 6-[[2,3-Difluoro-4-[1-(2-methoxyethyl)azetidin-3-yl]oxyphenyl]methyl]-9-hydroxy-5-methyl-7-oxo-N-[4-(trifluoromethyl)-2-[6-(trifluoromethyl)pyrimidin-4-yl]phenyl]-5,6-diazaspiro[3.5]non-8-ene-8-carboxamide [Example 413] | – | 34 |
| CSc1ccc(-c2cc(C(F)(F)F)ccc2NC(=O)C2=C(O)[C@H](C(C)(C)C)N(C)N(Cc3ccc(OCCN4CCOCC4)c(F)c3F)C2=O)cn1 [Example 268] | 63 | – |
| C[C@]12CCCN1N(Cc1cccc(Cl)c1)C(=O)C(C(=O)Nc1cc(F)c(Br)c(F)c1)=C2O [Example 221] | 82 | – |
| C[C@]12CCCN1N(Cc1cccc(F)c1F)C(=O)C(C(=O)Nc1ccc(Br)cc1-c1cc(C(F)(F)F)ncn1)=C2O [Example 64] | 77 | – |
| CC(C)[C@H]1C(O)=C(C(=O)Nc2ccc(Cl)cc2-c2ccc(C(F)(F)F)nc2)C(=O)N(Cc2ccc(OCCN3CCOCC3)c(F)c2F)N1C [Example 281] | 41 | – |
| CN1N(Cc2ccc(OCCN3CCOCC3)c(F)c2F)C(=O)C(C(=O)Nc2ccc(C(F)(F)F)cc2-c2cc(C(F)(F)F)ncn2)=C(O)C1(C)C [Example 313, 2-[[2,3-Difluoro-4-(2-morpholin-4-ylethoxy)phenyl]methyl]-5-hydroxy-1,6,6-trimethyl-3-oxo-N-[4-(trifluoromethyl)-2-[6-(trifluoromethyl)pyrimidin-4-yl]phenyl]pyridazine-4-carboxamide] | 65 | – |
| COC(=O)c1cc(F)c(CN2C(=O)C(C(=O)Nc3ccc(C(F)(F)F)cc3-c3ccc(C(F)(F)F)nc3)=C(O)[C@@]3(C)CCCN23)c(F)c1 [Example 165, Methyl 4-[[(4aR)-4-Hydroxy-4a-methyl-2-oxo-3-[[4-(trifluoromethyl)-2-[6-(trifluoromethyl)pyridin-3-yl]phenyl]carbamoyl]-6,7-dihydro-5H-pyrrolo[1,2-b]pyridazin-1-yl]methyl]-3,5-difluorobenzoate] | 75 | – |
| COCCN(C)CCOCCOCCOc1ccc(CN2C(=O)C(C(=O)Nc3ccc(C(F)(F)F)cc3-c3cc(C(F)(F)F)ncn3)=C(O)C3(CCCC3)N2C)c(F)c1F [Example 430] | 29 | – |
| C[C@H]1COC[C@H](C)N1CCOc1ccc(CN2C(=O)C(C(=O)Nc3ccc(C(F)(F)F)cc3-c3cc(C(F)(F)F)ncn3)=C(O)C3(CCC3)N2C)c(F)c1F [Example 343] | 68 | – |
| COCCOc1cc(NC(=O)C2=C(O)[C@@]3(C)CCCN3N(Cc3cccc(F)c3F)C2=O)c(-c2cccc(OC)c2OC)cc1C(F)(F)F [Example 92] | 81 | – |
| C[C@]12CCCN1N(Cc1cccc(F)c1F)C(=O)C(C(=O)Nc1ccc(C(F)(F)F)cc1-c1cnc(Br)cn1)=C2O [Example 73] | 74 | – |
| CN1N(Cc2ccc(OCCCOCCCO)c(F)c2F)C(=O)C(C(=O)Nc2ccc(C(F)(F)F)cc2-c2cc(C(F)(F)F)ncn2)=C(O)C12CCCC2 [Example 398] | 34 | – |
